Test results reported in US7767659B2, “Synthesis of naturally occurring ecteinascidins and related compounds” (Pharma Mar, S.A., priority 2002, dated 2010).

Legend:
SK-BR-3 = experiment: Inhibition of cells growth by colorimetric assay (SRB); settings: Homo sapiens, SK-BR-3, 48 h
In short: (§1)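 Colorimetric SRB read (490 nm) on triplicate wells after 48 h at 37 °C, 5% CO2. Dose range 10 to 10^−8 μg/ml; 5×10^3 cells/well pre-attached 18 h.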

PANC-1 = experiment: as above; settings: Homo sapiens, PANC-1, 48 h
In short: as §1

LoVo-Dox = experiment: as above; settings: Homo sapiens, 48 h
In short: as §1

IGROV-ET = experiment: as above; settings: Homo sapiens, 48 h
In short: as §1

K-562 = experiment: as above; settings: Homo sapiens, K562, 48 h
In short: as §1

DU-145 = experiment: as above; settings: Homo sapiens, DU-145, 48 h
In short: as §1

IGROV-1 = experiment: as above; settings: Homo sapiens, IGROV-1, 48 h
In short: as §1

LNCaP = experiment: as above; settings: Homo sapiens, LNCaP, 48 h
In short: as §1

SK-MEL-28 = experiment: as above; settings: Homo sapiens, SK-MEL-28, 48 h
In short: as §1

HeLa-APL = experiment: as above; settings: Homo sapiens, 48 h
In short: as §1

HeLa = experiment: as above; settings: Homo sapiens, HeLa, 48 h
In short: as §1

LoVo = experiment: cells; settings: Homo sapiens, LoVo, 48 h
In short: as §1

HT-29 = experiment: cells; settings: Homo sapiens, HT-29, 48 h
In short: as §1

A-549 = experiment: cells; settings: Homo sapiens, A549, 48 h
In short: as §1

For `C=CCN1[C@@H]2c3c(cc(C)c(OC)c3O)C[C@H]1[C@H](O)N1C2[C@@H]2SCC(NC(C)=O)C(=O)OC[C@H]1c1c3c(c(C)c(OC(C)=O)c12)OCO3` (stereo partly drawn) [compound 41], the GI50 (SK-BR-3; read-out: SK-BR3 GI50) was 32.3 nM, the CC50 (SK-BR-3; read-out: SK-BR3 LC50) was 352 nM and the IC (TGI) (SK-BR-3; read-out: SK-BR3 TGI) was 72.2 nM. The GI50 (PANC-1; read-out: PANC-1 GI50) was 37.7 nM, the CC50 (PANC-1; read-out: PANC-1 LC50) was 14700 nM and the IC (TGI) (PANC-1; read-out: PANC-1 TGI) was 100 nM. For the same molecule, the GI50 (LoVo-Dox; read-out: LOVO-DOX GI50) was 270 nM, the CC50 (LoVo-Dox; read-out: LOVO-DOX LC50) was 14700 nM and the IC (TGI) (LoVo-Dox; read-out: LOVO-DOX TGI) was 1180 nM. The GI50 (IGROV-ET; read-out: IGROV-ET GI50) was 41.8 nM, the CC50 (IGROV-ET; read-out: IGROV-ET LC50) was 14700 nM and the IC (TGI) (IGROV-ET; read-out: IGROV-ET TGI) was 87.1 nM. It also gave a GI50 (K-562; read-out: K562 GI50) of 20.4 nM, a CC50 (K-562; read-out: K562 LC50) of 125 nM and an IC (TGI) (K-562; read-out: K562 TGI) of 50.5 nM. It also gave a GI50 (DU-145; read-out: DU145 GI50) of 45.3 nM, a CC50 (DU-145; read-out: DU145 LC50) of 274 nM and an IC (TGI) (DU-145; read-out: DU145 TGI) of 75.5 nM. For the same molecule, the GI50 (IGROV-1; read-out: IGROV GI50) was 15.7 nM, the CC50 (IGROV-1; read-out: IGROV LC50) was 121 nM and the IC (TGI) (IGROV-1; read-out: IGROV TGI) was 43.7 nM. The GI50 (LNCaP; read-out: LNCAP GI50) was 0.95 nM, the CC50 (LNCaP; read-out: LNCAP LC50) was 92.8 nM and the IC (TGI) (LNCaP; read-out: LNCAP TGI) was 31.4 nM. For the same molecule, the GI50 (SK-MEL-28; read-out: MEL-28 GI50) was 33.7 nM, the CC50 (SK-MEL-28; read-out: MEL-28 LC50) was 123 nM and the IC (TGI) (SK-MEL-28; read-out: MEL-28 TGI) was 64.5 nM. The GI50 (HeLa-APL; read-out: HELA-APL GI50) was 30.1 nM, the CC50 (HeLa-APL; read-out: HELA-APL LC50) was 132 nM and the IC (TGI) (HeLa-APL; read-out: HELA-APL TGI) was 63.1 nM. The GI50 (HeLa; read-out: HELA GI50) was 28.2 nM, the CC50 (HeLa; read-out: HELA LC50) was 120 nM and the IC (TGI) (HeLa; read-out: HELA TGI) was 58.1 nM. For the same molecule, the GI50 (LoVo; read-out: LOVO GI50) was 37.8 nM, the CC50 (LoVo; read-out: LOVO LC50) was 14700 nM and the IC (TGI) (LoVo; read-out: LOVO TGI) was 94 nM. It also gave a GI50 (HT-29; read-out: HT29 GI50) of 42.7 nM, a CC50 (HT-29; read-out: HT29 LC50) of 14700 nM and an IC (TGI) (HT-29; read-out: HT29 TGI) of 120 nM. It also gave a GI50 (A-549; read-out: A549 GI50) of 43.1 nM, a CC50 (A-549; read-out: A549 LC50) of 125 nM and an IC (TGI) (A-549; read-out: A549 TGI) of 73.5 nM.
